In patent publication US20220041681A1 (MEDIMMUNE LIMITED, priority 2016, published 2022):
Values after ≈ are worked out from the molar mass of the structure shown. Where two headings read alike, the source gives them in different places. Numbered stars: 1 amine (or outer) side, 2 acyl side, 3 side chain; on linkers, the order of the positions; unused ones are H or OH. Side chains are listed from the residue outwards. Peptide text beside a SMILES is read from it. * marks the point of attachment. γGlu = O=C(O)[C@H](CCC(=O)[*:2])N[*:1]; Palmitoyl = CCCCCCCCCCCCCCCC(=O)*

What was measured:
human serum albumin = human serum albumin (Homo sapiens, UniProt P02768); assay: Fraction of free peptide calculated from variation in cAMP generation with HSA concentration; conditions: calculated from cAMP generation vs HSA concentration
Text: Data was transformed to % Delta F as described in manufacturer's guidelines and analysed by 4-parameter logistic fit to determine EC50 values. […] To compare the balance of activities at the GLP1R and GlucR between different peptides and across different conditions, these can be correlated using the calculation below, where the EC50's are related to those of the natural ligands.

[1] = Stability testing of peptides in plasma; assay type: in vitro ADME, mouse
Experimental: (§1) Stability testing of peptides in plasma.
(§2) Stock solutions of the peptides of about 200 μmol/L was prepared by weighing solid peptide into a Eppendorf Low Bind Tube and dissolved in DMSO. 10 μL of stock solutions were added to 990 μL of plasma in an Eppendorf Low Bind Tube, resulting in initial concentrations of the peptides in plasma of about 2 μmol/L. The frozen blank plasma from human, rat and mouse had been thawed and heated to a temperature of 37° C. before addition of the stock solution. The spiked plasma samples were gently mixed and allowed to equilibrate for about 5 minutes before start of experiment. The plasma samples were incubated for 48 hours in a GalaxyR CO2 incubator at 37° C. Sampling (30 μL) was performed at 0, 1, 2, 6.5, 17, 24 and 48 hours. The samples were stored at −70° C. until analysis.
(§3) Plasma samples were assayed as follows. The 30 μL plasma samples were protein precipitated with […] of cold ethanol in a 96-well low bind plate (Eppendorf Protein LoBind). After mixing and centrifugation, 100 μl the supernatant was transferred to a new plate and 1 μl was injected onto an analytical column.
(§4) The analysis was performed using a μLC-system (LC Exigent μLC) coupled to a medium high resolution mass spectrometer (Perkin Elmer PenTOF) with positive electrospray ionisation. The analytical column was a 5 cm, 1 mm Agilent Poroshell (custom made) C18-column with a particle size of 2.7 μm. Flow: 0.1 ml/min using a slow reversed phase gradient. Mobile phases used were acetonitrile and water containing 0.1% formic acid.
The resulting data were manually evaluated for the following degradation products: +1 product (acid) and the DPP IV-cleavage product. Products with +1 mass may arise from deamidation at amide groups of glutamine or at the C-terminus. Cleavage products arise from the action of the protease DPP IV in plasma. Both the degradation of the peptides and formation of peptide products were reported in percentage of the initial peptide concentration. Peaks were integrated and % remaining peptide was calculated: (peak area/peak area 0H)*100. […]

[2] = tested on: diet induced obesity (DIO) mouse model; assay: Diet induced obesity (DIO) mouse model, study A; assay type: in vivo; conditions: for BeHy / Insulin / Plasma NEFA: day 14
Text: Female C57/Bl6JHsdOla (obtained from Harlan Laboratories. UK) were started on a high fat diet of D12492 (Research Diets, NJ, USA) and a chocolate confection, delicato ball (Delicata Bakverk, Sweden) at 9-11 weeks of age, and were maintained on the diet for 16 weeks prior to arrival to the animal facility, during a three week acclimation period and during drug treatment, caloric content of the two components of the diet is shown in Table 11. The mice were divided into 9 groups (n=5-6), and treatment was started at 29 weeks of age.
The body weight of the animals was monitored daily throughout die dosing period. At day 14, blood samples for the measurement of plasma glucose and insulin from conscious mice were obtained after a 4-hour fasting period. Mice were then anaesthetized using isofluorane and terminal blood was collected from the capillary bed behind the eye. The following parameters were measured: blood chemistry measurements of triglycerides, total cholesterol, non-esterified fatty acids (NEFA), beta-hydroxybutyrate and fibroblast growth factor 21 (FGF21) (Tables 14 and 15 below).

[3] = Peptide solubility in isotonic formulations (DF, BF1, BF2); conditions: formulation DF (DF/BF1 for G797)
Experimental: Formulations. Peptide solubility was assessed in three different isotonic formulations: • 1. […] Final formulation pH=7.2 • 2. Back up formulation 1 (BF1)=0.05M Tris, 50 nM Arginine/Proline. Final formulation pH=8.0 • 3. […] Final formulation pH=7.0

[4] = assay type: in vitro ADME, human
Experimental: as §1, §2, §3, §4
The resulting data were manually evaluated for the following degradation products: +1 product (acid) and the DPP IV-cleavage product. Products with +1 mass may arise from deamidation at amide groups of glutamine or at the C-terminus. Cleavage products arise from the action of the protease DPP IV in plasma. Both the degradation of the peptides and formation of peptide products were reported in percentage of the initial peptide concentration. Peaks were integrated and % remaining peptide was calculated: (peak area/peak area 0H)*100. Levels of deamidation and DPP IV cleavage were low for G797 and G933.

[5] = assay type: in vitro ADME, rat
Experimental: as §1, §2
as §3, with “column. […]” for “column.”
The resulting data were manually evaluated for the following degradation products: +1 product (acid) and the DPP IV-cleavage product. […] Peaks were integrated and % remaining peptide was calculated: (peak area/peak area 0H)*100. […]

[6] = Peptide solubility in buffers (A280); assay type: physicochemical; conditions: target 1 mg/ml, read-out: Conc. (A280), solubility
Text: G7310 was soluble in a pH range of 4.5 to 8.0.

Rat GlucR = biological target: T1, Rat GlucR (Rattus norvegicus, UniProt P30082); assay: cAMP assay in presence of serum albumin (assay 2), 3.2% rat serum albumin; assay type: cell-based; conditions: relative potencies vs native ligands
T1 construct: expressed in transfected cells
Experimental: CHO cells with stable recombinant expression of the human, mouse or rat GlucR or GLP-t receptor were cultured in DMEM 10% FBS and geneticin (100 μg/mil). Cryopreserved cell stocks were prepared in 1× cell freezing medium-DMSO serum free (Sigma Aldrich) at 2×10^7/vial and stored at […]. […] Peptides were serially diluted in DMSO and then diluted 100 fold into DMEM containing serum albumin at stated final concentration. […] Cells were added to the assay plates and incubated for 30 min at room temperature. Following incubation the assay was stopped and cAMP levels measured using the HTRF® dynamic d2 cAMP assay kit available from CisBio Bioassays, as per the manufacturer's guidelines. Plates were read on Perkin Elmer ENVISION® fluorescence plate readers. Human and rat serum albumin were purchased from Sigma Aldrich and mouse serum albumin from Equitech Bio Ltd.

Chain of human serum albumin (P02768 25-609): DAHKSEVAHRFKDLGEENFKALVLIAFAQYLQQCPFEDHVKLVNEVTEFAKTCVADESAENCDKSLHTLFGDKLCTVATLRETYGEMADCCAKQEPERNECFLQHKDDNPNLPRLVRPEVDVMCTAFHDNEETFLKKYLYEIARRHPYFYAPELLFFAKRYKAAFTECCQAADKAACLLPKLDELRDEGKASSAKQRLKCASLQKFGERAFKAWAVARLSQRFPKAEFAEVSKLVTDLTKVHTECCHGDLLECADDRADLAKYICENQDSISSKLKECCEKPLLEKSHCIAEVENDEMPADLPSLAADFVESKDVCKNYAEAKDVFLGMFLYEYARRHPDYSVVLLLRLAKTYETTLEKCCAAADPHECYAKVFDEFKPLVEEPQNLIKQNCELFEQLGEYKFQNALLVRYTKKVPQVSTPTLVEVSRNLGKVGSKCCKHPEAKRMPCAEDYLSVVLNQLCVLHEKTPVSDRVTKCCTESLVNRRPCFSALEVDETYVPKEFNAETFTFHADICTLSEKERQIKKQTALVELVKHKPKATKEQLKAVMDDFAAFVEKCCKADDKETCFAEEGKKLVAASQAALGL
T1 sequence (P30082 27-485): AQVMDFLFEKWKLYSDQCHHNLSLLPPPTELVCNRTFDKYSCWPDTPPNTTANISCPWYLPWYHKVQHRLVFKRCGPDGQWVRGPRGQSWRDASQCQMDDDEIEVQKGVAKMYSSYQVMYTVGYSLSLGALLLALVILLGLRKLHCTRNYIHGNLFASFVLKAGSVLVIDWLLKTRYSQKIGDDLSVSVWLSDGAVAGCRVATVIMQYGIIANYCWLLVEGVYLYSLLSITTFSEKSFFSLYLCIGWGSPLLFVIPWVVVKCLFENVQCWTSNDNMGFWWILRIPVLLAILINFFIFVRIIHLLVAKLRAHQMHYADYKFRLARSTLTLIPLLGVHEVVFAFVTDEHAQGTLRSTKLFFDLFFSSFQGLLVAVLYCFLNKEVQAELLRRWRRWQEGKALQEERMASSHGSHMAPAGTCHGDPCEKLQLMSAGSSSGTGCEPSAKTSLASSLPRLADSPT

CCCCCCCCCCCCCCCC(=O)N[C@@H](CCC(=O)NCCCC[C@H](NC(=O)[C@H](CCCCN)NC(=O)[C@H](CO)NC(=O)[C@H](Cc1ccc(O)cc1)NC(=O)[C@H](CC(=O)O)NC(=O)[C@H](CO)NC(=O)[C@@H](NC(=O)[C@H](Cc1ccccc1)NC(=O)[C@@H](NC(=O)CNC(=O)[C@H](CCC(N)=O)NC(=O)[C@H](CO)NC(=O)[C@@H](N)Cc1c[nH]cn1)[C@@H](C)O)[C@@H](C)O)C(=O)N[C@@H](CC(C)C)C(=O)N[C@@H](CC(=O)O)C(=O)N[C@@H](CO)C(=O)N[C@@H](CCC(=O)O)C(=O)N[C@@H](CCCNC(=N)N)C(=O)N[C@@H](C)C(=O)N[C@@H](CCCNC(=N)N)C(=O)N[C@@H](CC(=O)O)C(=O)N[C@@H](Cc1ccccc1)C(=O)N[C@H](C(=O)N[C@@H](C)C(=O)N[C@@H](Cc1c[nH]c2ccccc12)C(=O)N[C@@H](CC(C)C)C(=O)N[C@H](C(=O)N[C@@H](C)C(=O)NCC(=O)NCC(N)=O)C(C)C)C(C)C)C(=O)O [Peptide G730] (H-HSQGTFTSDYSKK([γGlu-Palmitoyl])LDSERARDFVAWLVAGG-NH2; N-terminus assumed)
free peptide at 4.4% HSA (human serum albumin): 0.85%
% +1 prod [1]: 15%
% stable peptide ([1]; mouse plasma, 37° C., 24 h): 65%
BeHy ([2]; 10 nmol/kg): 426 u mol/l
Insulin ([2]; 10 nmol/kg): 0.4 nM
Plasma NEFA ([2]; 10 nmol/kg): 0.28 Mm
BeHy ([2]; 20 nmol/kg): 750 u mol/l
Insulin ([2]; 20 nmol/kg): 0.2 nM
Plasma NEFA ([2]; 20 nmol/kg): 0.26 Mm
BeHy ([2]; 50 nmol/kg): 1477 u mol/l
Insulin ([2]; 50 nmol/kg): 0.3 nM
Plasma NEFA ([2]; 50 nmol/kg): 0.32 Mm
body weight over the 14 day dosing period ([2]; study A, in words): dose dependent and continuous weight loss
glucose levels at day 14 ([2]; study A, in words): dose-dependent reduction in glucose levels
Formulation Concentration [3]: 5 mg/mL
% +1 prod [4]: <1%
% DPP cleaved product/+1 DPP cleaved product [4]: <1%
% DPP cleaved product/+1 DPP cleaved product [5]: 2%
solubility ([6]; Tris buffer, Tris pH 7.5, 100 mM): 830 µg/mL (≈ 225 µM)
solubility ([6]; Tris buffer, Tris pH 8.0, 100 mM): 1100 µg/mL (≈ 298 µM)
solubility ([6]; glutamate buffer, Glutamate pH 4.5, 100 mM): 830 µg/mL (≈ 225 µM)
solubility ([6]; phosphate buffer, Phosphate pH 6, 100 mM): 140 µg/mL (≈ 37.9 µM)
solubility ([6]; phosphate buffer, Phosphate pH 6.5, 100 mM): 830 µg/mL (≈ 225 µM)
solubility ([6]; phosphate buffer, Phosphate pH 7.5, 100 mM): 850 µg/mL (≈ 230 µM)
Rat GlucR/GLP1R Ratio (Rat GlucR): 0.05
